Laboratory results from patent US5616684A, “Cyclic peptides and use thereof” (priority 1991, dated 1997).
Non-standard residues stand in square brackets, D forms with d. Residues, ends and D or L forms follow the SMILES beside them. 1Nal = N[C@@H](Cc1cccc2ccccc12)C(=O)O; d(aIle) = CC[C@H](C)[C@@H](N)C(=O)O; Hyp = O=C(O)[C@@H]1C[C@@H](O)CN1; Aze = O=C(O)[C@@H]1CCN1

Key:
[1] = amide bond; 18-membered ring; HONB ester (HONB/DCC)/TEA; DMF; 5.0 mM; 4 steps
[2] = biological target: T1, endothelin receptor A (ETA) (Sus scrofa, UniProt Q29010); experiment: Assay of Affinity for Receptor (1): Binding Activity on ETA Receptor; design: key to Binding Activity on ET Receptor (R. act.) ETA: relative binding activity; reference cyclic pentapeptide = 1.0; details: specific activity, binding activity of cyclo[-D-Glu-Ala-D-aIle-Leu-D-Trp-] taken as 1.0; porcine heart membrane fraction, 125I-labeled endothelin-1, 25° C., 1 hour
T1 construct: A membrane fraction prepared from the porcine heart; from tissue; host or cells: porcine heart membrane fraction
T1 sequence (Q29010 21-427): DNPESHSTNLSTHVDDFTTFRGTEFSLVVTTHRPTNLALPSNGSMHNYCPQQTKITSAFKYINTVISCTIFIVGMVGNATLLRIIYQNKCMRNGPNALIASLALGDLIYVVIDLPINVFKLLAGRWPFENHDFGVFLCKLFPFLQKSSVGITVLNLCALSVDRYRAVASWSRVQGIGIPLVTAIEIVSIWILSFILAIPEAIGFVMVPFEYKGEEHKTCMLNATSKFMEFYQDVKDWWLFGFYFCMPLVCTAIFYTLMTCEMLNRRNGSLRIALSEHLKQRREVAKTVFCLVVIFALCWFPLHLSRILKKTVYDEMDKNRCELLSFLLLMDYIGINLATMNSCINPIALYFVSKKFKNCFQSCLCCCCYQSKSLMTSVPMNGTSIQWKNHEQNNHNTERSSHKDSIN
Outline: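 Porcine heart membranes (0.15 mg/ml) incubated with 125I-endothelin-1 and test peptide for 1 h at 25 °C, then diluted with ice-cold buffer and pelleted at 12,000×g; bound radioactivity gamma-counted. Values expressed as specific activity relative to cyclo[-D-Glu-Ala-D-aIle-Leu-D-Trp-] set at 1.0.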

[3] = system: ETB receptor (guinea pig kidney crude receptor membrane fraction); experiment: ETB Radio Receptor Assay *2; type: binding; details: relative activity (Example 8 given as 100), 125I-endothelin-1, 37° C., 90 minutes
Outline: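 Crude membranes from guinea pig kidney (2.1 μg protein) incubated with 740 Bq ^125I-endothelin-1 and test sample, 90 min at 37 °C, in 50 mM Tris-HCl pH 7.4 with 0.1 mM PMSF, 1 mM EDTA, 0.2% BSA. Bound ligand separated by fast filtration and counted by gamma counter.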

[4] = biological target: T2, endothelin receptor B (ETB) (Bos taurus, UniProt P28088); experiment: Assay of Affinity for Receptor (2): Binding Activity on ETB Receptor *1; design: key: relative specific activity, Example 8 compound = 100; details: specific activity, binding activity of the compound of Example 8 taken as 100; bovine brain membrane fraction, 125I labeled endothelin-1, 25° C., 1 hour
T2 construct: A membrane fraction prepared from the bovine brain; from tissue; host or cells: bovine brain membrane fraction
T2 sequence (P28088 27-441): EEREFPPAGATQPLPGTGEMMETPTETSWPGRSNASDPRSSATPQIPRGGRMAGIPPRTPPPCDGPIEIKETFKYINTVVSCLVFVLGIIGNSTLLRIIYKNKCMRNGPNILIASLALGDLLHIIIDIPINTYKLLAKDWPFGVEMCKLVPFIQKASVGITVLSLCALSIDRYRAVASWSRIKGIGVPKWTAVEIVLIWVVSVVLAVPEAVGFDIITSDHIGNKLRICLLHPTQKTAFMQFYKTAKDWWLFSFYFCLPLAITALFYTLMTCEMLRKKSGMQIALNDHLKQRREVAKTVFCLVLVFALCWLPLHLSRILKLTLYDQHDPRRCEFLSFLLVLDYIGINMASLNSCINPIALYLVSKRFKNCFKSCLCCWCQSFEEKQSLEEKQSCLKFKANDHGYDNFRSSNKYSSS
Protocol: Assay of Affinity for Receptor (2) . . . Binding Activity on ETB Receptor *1
A membrane fraction prepared from the bovine brain was diluted to 0.15 mg/ml by using a buffer solution for assay, and 100 μl of the resulting suspension of the membrane fraction was poured into each assay tube to use for assay. To this suspension of the membrane fraction was added 2 μl of 5 nM ^125 I labeled endothelin-1 solution. Further, 3 μl of a test peptide solution was added thereto, followed by incubation at a temperature of 25° C. for 1 hour. Then, the resulting suspension was diluted with 900 μl of the buffer solution for assay cooled with ice, and thereafter separated into a supernatant and a precipitate by centrifugation at 12,000×g for 10 minutes. Cell membranes and an endothelin receptor B (ETB) embedded therein were contained in the precipitate, and radioactive iodine-labeled endothelin bound to the receptor was also recovered in the precipitate. Accordingly, the amount of radioactive iodine-labeled endothelin bound to the endothelin receptor B (ETB) was determined by measuring the amount of radioactive iodine contained in the precipitate with a gamma-ray counter. The numerical value of ETB shown in Table 1 is the value of specific activity, taking the binding activity of the compound of Example 8 on the receptor B as 100.

| Molecule | ring closure, yield after HPLC [1] | Binding Activity on ET Receptor (R. act.) ETA [2] | Binding Activity on ET Receptor (R. act.) ET8 *2 [3] | Binding Activity on ET Receptor (R. act.) ET8 *1 [4] |
| --- | --- | --- | --- | --- |
| cyclo[-D-Asp-Trp-Asp-D-tLeu-Leu-D-Trp-] | 42.8% |  |  |  |
| CC(C)C[C@@H]1NC(=O)[C@@H](CC(C)C)NC(=O)[C@H](CC(=O)O)NC(=O)[C@@H]2C[C@@H](O)CN2C(=O)[C@@H](CC(=O)O)NC(=O)[C@@H](Cc2c[nH]c3ccccc23)NC1=O [Example 14, cyclo[-D-Asp-Hyp-Asp-D-Leu-Leu-D-Trp-]] (cyclo(D[dL]L[dW][dD][Hyp])) |  | 70 | 120 | 160 |
| CC(C)C[C@@H]1NC(=O)[C@@H](CC(C)C)NC(=O)[C@H](CC(=O)O)NC(=O)[C@H](Cc2c[nH]c3ccccc23)NC(=O)[C@@H](CC(=O)O)NC(=O)[C@@H](Cc2c[nH]c3ccccc23)NC1=O [Example 8, cyclo[-D-Asp-Trp-Asp-D-Leu-Leu-D-Trp-]] (cyclo(D[dL]L[dW][dD]W)) |  | 76 | 100 | 100 |
| cyclo[-D-Asp-Glu(Bzl)-Asp-D-Thg(2)-Leu-D-Trp-] [Example 89] |  | 750 | 71 | 45 |
| CC(C)C[C@@H]1NC(=O)[C@@H](CC(C)C)NC(=O)[C@H](CC(=O)O)NC(=O)[C@H](Cc2cccc3ccccc23)NC(=O)[C@@H](CC(=O)O)NC(=O)[C@@H](Cc2c[nH]c3ccccc23)NC1=O [Example 23, Cyclo[--D--Asp--Nal(1)--Asp--D--Leu--Leu--D--Trp--]] (cyclo([1Nal]D[dL]L[dW][dD])) |  | 8.3 | 7.7 | 11 |
| CC(C)C[C@@H]1NC(=O)[C@@H](CC(C)C)NC(=O)[C@H](CC(=O)O)NC(=O)[C@H](CC(=O)O)NC(=O)[C@@H](CC(=O)O)NC(=O)[C@@H](Cc2c[nH]c3ccccc23)NC1=O [Example 16, Cyclo[--D--Asp--Asp--Asp--D--Leu--Leu--D--Trp--]] (cyclo(DD[dL]L[dW][dD])) |  | 10 | 34 | 14 |
| CC(C)C[C@@H]1NC(=O)[C@@H](CC(C)C)NC(=O)[C@@H]2CCCN2C(=O)[C@H](Cc2c[nH]c3ccccc23)NC(=O)[C@@H](CC(=O)O)NC(=O)[C@@H](Cc2c[nH]c3ccccc23)NC1=O [Example 36, Cyclo[--D--Asp--Trp--Pro--D--Leu--Leu--D--Trp--]] (cyclo(L[dW][dD]WP[dL])) |  | 17 | 42 | 40 |
| CC(C)C[C@@H]1NC(=O)[C@@H](CC(C)C)NC(=O)[C@H](CC(=O)O)NC(=O)[C@@H]2CCN2C(=O)[C@@H](CC(=O)O)NC(=O)[C@@H](Cc2c[nH]c3ccccc23)NC1=O [Example 25, Cyclo[--D--Asp--Azc--Asp--D--Leu--Leu--D--Trp--]] (cyclo([Aze]D[dL]L[dW][dD])) |  | 30 | 57 | 25 |
| CC[C@H](C)[C@H]1NC(=O)[C@H](CC(=O)O)NC(=O)[C@H](Cc2c[nH]c3ccccc23)NC(=O)[C@@H](CC(=O)O)NC(=O)[C@@H](Cc2c[nH]c3ccccc23)NC(=O)[C@H](CC(C)C)NC1=O [Example 51, Cyclo[--D--Asp--Trp--Asp--D--aIle--Leu--D--Trp--]] (cyclo(D[d(aIle)]L[dW][dD]W)) |  | 100 | 290 | 210 |
| CC(C)C[C@H]1NC(=O)[C@H](CC(=O)O)NC(=O)[C@H](C)NC(=O)[C@@H](CC(=O)O)NC(=O)[C@@H](Cc2c[nH]c3ccccc23)NC(=O)[C@H](Cc2c[nH]c3ccccc23)NC1=O [Example 58, Cyclo[--D--Asp--Ala--Asp--D--Leu--Trp--D--Trp--]] (cyclo(AD[dL]W[dW][dD])) |  | 0.7 | 22 | 6.7 |
